According to patent US20230405078A1, “DETECTION AND TREATMENT OF INTESTINAL FIBROSIS” (THE REGENTS OF THE UNIVERSITY OF CALIFORNIA, priority 2020, published 2023):
Entries after “also recorded” stand apart in the source; their conditions may differ. Where no end group is shown, it is not given here.

Key:
[1] = tested on: TNBS-treated mice; experiment: TNBS-associated colonic fibrosis in mice; assay type: in vivo
Method: Eight-week-old male and female CD-1 mice (#022, Charles River Laboratories) were injected with 50pL TNBS solution (to induce colonic fibrosis) or 30% ethanol (vehicle) via enema weekly for five weeks. After the last TNBS injection, the mice were held for two additional weeks to develop colonic fibrosis. Some of the mice were injected with 5 μg/mouse of either control (PS100001) or elafin-expressing construct (RC203136) from
Origene via InvivoJetPEI transfection reagent (201-10G, Polyplus) intracolonically on the 9th day after the last TNBS injection or five days before the end of experiment.
Some of the mice received either a single intraperitoneal injection of 10 mg/kg anti-tumor necrosis factor-alpha (anti-TNFα) neutralizing antibody (6E0058, BioXCell) or oral antibiotic mixture in drinking water ad libitum from the 9th day after the last TNBS injection to the endpoint of the experiment. The antibiotics mixture contains kanamycin (0.4 mg/mL), gentamicin (0.035 mg/mL), colistin (850 U/mL), metronidazole (0.215 mg/mL), and vancomycin (0.045 mg/mL), which was routinely used by our laboratory for suppressing intestinal microbiota.
For PAR1/2 activation, some of the mice were injected with DMSO (50pL/mouse), 5 mg/kg PAR1 agonist TRAP-6, or 5 mg/kg PAR2 agonist SLIGKV-NH2 via enema on the 9th, 11th, and 13th days after the last TNBS injection.
For miRNA inhibition, some of the mice were injected with 5 mg/kg either control inhibitor or miR205-5p power inhibitor (Qiagen) […] via enema on the 9th, 11th, and 13th days after the last TNBS injection.
For Zeb1 manipulation, some mice received a single intraperitoneal injection (10^7 infectious units/mouse) of control lentivirus (PS100064V), Zeb1-overexpressing lentivirus (MR223095L2V), or Zeb1-shRNA lentivirus (TL513177V) from Origene, Inc. nine days after the last TNBS injection.
Dr. Xingguo Cheng produced the oral elafin-Eudragit-FS3OD formulation via a material transfer agreement (UCLA MTA2019-00000337) with the Southwest Research Institute (SWRI) in Texas. […] The mice were fed with either control-Eudragit or elafin-Eudragit in mildly acidified (pH 5) water containing 0.5% hydroxypropyl methylcellulose (HPMC) daily via oral gavage during the last five days of the experiment.
H&E and Masson Trichrome (MT) staining were performed as described previously. Microphotographs were recorded at multiple locations and scored by two investigators blindly. Intestinal injuries were scored (0-12). The severity of intestinal fibrosis was assessed by MT staining and scored (0-3). ZEB1 immunohistochemistry was performed using an anti-ZEB1 antibody (HPA027524, Sigma).
Total RNA was isolated by an RNeasy kit (#74104, Qiagen) and reverse transcribed into cDNA by a high-capacity cDNA reverse transcription kit (#4368813, ThermoFisher). PCR reactions were run with Taq Universal SYBR Green Supermix (1725120, Bio-Rad) and TaqMan real-time PCR assays (ThermoFisher) in a Bio-Rad CFX384 system. For the determination of miRNA expression, RNA was converted to cDNA using miRCURY LNA RT kit. PCR reactions were run with miRCURY LNA SYBR Green PCR kit and miRCURY LNA PCR assays (Qiagen). Relative mRNA/miRNA quantification was performed by comparing test groups and control groups after normalization with endogenous control genes. The fold changes are expressed as […]. […]
Overall disease activity (ODA) was calculated by % change of histology and fibrosis scores and colonic mRNA expression of fibrosis- and inflammation-related genes. […]

[2] = tested on: Human colonic CCD-18Co fibroblasts; experiment: TGF-β1-induced fibrogenesis in CCD-18Co fibroblasts; assay type: cell-based
Method: Cleveland Clinic IRB directives (IRB #17-1167). Primary non-IBD patient-derived colonic fibroblasts (H6231) were purchased from Cell Biologics. All primary colonic fibroblasts were cultured in fibroblast medium (M2267, Cell Biologics). Human colonic CCD-18Co fibroblasts (ATCC) were cultured in minimal essential medium Eagle's medium (MEM) containing 10% fetal bovine serum and 1% penicillin-streptomycin 6, 20. All fibroblasts were grown to 80% confluence and then switched to serum-free media overnight for experiments.
For activation of protease-activated receptors (PARs), fibroblasts were pretreated with 0.8% DMSO, 10 μM PAR1 agonist TRAP-6 (HY-P0078, MCE), 10 μM PAR2 agonist SLIGKV-NH2 (Protease-Activated Receptor-2, amide, HY-P0283, MCE), or 0.4 μg/ml PAR2-activating protease recombinant cathepsin S (1183-CY-010, R&D Systems) for 30 minutes. For miR205-5p activation, fibroblasts were transfected with (30 picomoles/well) either control (YM00479902) or miR205-5p miRCURY LNA mimic (YM00472340) from Qiagen via Lipofectamine 3000 transfection reagent (L3000001, ThermoFisher) in Opti-MEM (#31985062, ThermoFisher) overnight. For miR205-5p inhibition, fibroblasts were pretreated with 50nM either control (Y100199006) or miR205-5p power inhibitors (Y104101508-DDA) from Qiagen overnight. For overexpression of zinc finger E-box homeobox 1 (ZEB1), fibroblasts were infected with […] infectious units/plate either control (PS100064V) or human ZEB1-overexpressing lentivirus (RC217704L1V) from Origene, Inc. overnight.
The fibroblasts were pretreated with either 0.1% TFA (vehicle), 10 ng/ml transforming growth factor-beta 1 (TGF-p1), or 100 μg/ml serum exosomes from stricturing CD (CDSE) patients for two hours to induce fibrogenesis, followed by incubation with elafin (AS-61641, Anaspec) for 2-24 hours. Serum exosomes from CD patients were used to mimic the chemical environment of CD [12]. At the end of the experiments, the cells were lysed with either RLT buffer for RNA experiments or radioimmunoprecipitation assay (RIPA) buffer for ProCOL1A1 (DY6220-05, R&D Systems), COL1A2 (MBS2701496, MyBioSource), ZEB1 (MBS774017, MyBioSource), or phosphorylated ERK1/2 (DYC1018B, R&D Systems) ELISAs.

Substance | overall disease activity ([1]; TNBS models) | TGF-β1 induced COL1A2 and ProCOL1A1 protein expression ([2]; CCD-18Co, ELISA of cell lysates) | TGF-β1-induced COL1A2 (collagen) mRNA expression ([2]; TGF-β1 10 ng/ml, elafin (0.1-10 micrograms/ml) added two hours later, 24 hours) | ZEB1 mRNA and protein expression ([2]; TGF-β1-/CD serum-exosome-treated human colonic fibroblasts) | miR205-5p expression ([2]; TGF-β1-treated CCD-18Co fibroblasts) | miR205-5p expression ([2]; TGF-β1-treated CCD-18Co fibroblasts, listed as elafin) | colonic injury and fibrosis ([1]; TNBS-treated mice) | colonic miR205-5p expression ([1]; TNBS-treated mice) | effect on elafin-mediated inhibition of colonic injury, fibrosis and fibrogenic gene expression ([1]; TNBS-treated mice with intracolonic elafin overexpression) | effect on elafin-mediated miR205-5p induction and ZEB1 inhibition ([2]; TGF-β1-treated CCD-18Co fibroblasts, agonist 10 μM) | effect on elafin-mediated inhibition of collagen expression ([2]; TGF-β1-treated CCD-18Co fibroblasts, elafin 1 μg/ml)
Elafin: small (6 kDa) human elastase-specific protease inhibitor and antimicrobial peptide; active form SEQ ID NO: 2 (AQEPVKGPVSTKPGSCPIILIRCAMLNPPNRCLKDTDCPGIKKCCEGSCGMACFVPQ; listed as Homo sapiens) | 7-11% | reversed | significantly reduced; also recorded: reversed | decreased; also recorded: diminished | increased | significantly increased | – | – | – | – | –
SLIGKV-NH2 [PAR2 agonist, reference compound] | – | – | – | – | – | – | did not affect | diminished | reversed | reversed | reversed
